Assay results published in PubChem BioAssay (NCI).
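Test compounds were applied to cells in 96-well plates for 48 hours at 5 doses. GI50: concentration for 50% inhibition of growth. Definition used: TGI = concentration required for complete inhibition of growth.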

Tests used:
Experiment in all cases: growth of human tumour cells (NCI), 48 h
HCT-116 colon = test system: HCT-116 colon
SN12C renal = test system: SN12C renal
NCI-H23 lung = test system: NCI-H23 lung
786-0 renal = test system: 786-0 renal
OVCAR-4 ovarian = test system: OVCAR-4 ovarian
NCI/ADR-RES ovarian = test system: NCI/ADR-RES ovarian
COLO 205 colon = test system: COLO 205 colon
DU-145 prostate = test system: DU-145 prostate
CAKI-1 renal = test system: CAKI-1 renal
EKVX NSCLC = test system: EKVX NSCLC

SMILES	GI50 (HCT-116 colon) [µM]	TGI (HCT-116 colon) [µM]	GI50 (SN12C renal) [µM]	TGI (SN12C renal) [µM]	GI50 (NCI-H23 lung) [µM]	TGI (NCI-H23 lung) [µM]	GI50 (786-0 renal) [µM]	TGI (786-0 renal) [µM]	GI50 (OVCAR-4 ovarian) [µM]	TGI (OVCAR-4 ovarian) [µM]	GI50 (NCI/ADR-RES ovarian) [µM]	TGI (NCI/ADR-RES ovarian) [µM]	GI50 (COLO 205 colon) [µM]	TGI (COLO 205 colon) [µM]	GI50 (DU-145 prostate) [µM]	TGI (DU-145 prostate) [µM]	GI50 (CAKI-1 renal) [µM]	TGI (CAKI-1 renal) [µM]	TGI (EKVX NSCLC) [µM]	GI50 (EKVX NSCLC) [µM]
COc1ccc2c(c1)C(=O)/C(=C/c1ccc([N+](=O)[O-])o1)O2	0.495	1.22	1.91	4.36	1.8	4	1.79	3.43	0.81	2.06	3.11	> 38.9	1.3	2.74	2.05	3.97	0.432	1.49	–	–
C/C(=N\NC(=S)SCc1ccccc1)c1ccccn1	–	5.96	–	3.13	–	9.31	–	10.2	–	1.52	–	< 0.0332	–	0.464	–	16.9	–	4.93	< 0.01	–
CCC(=O)Nc1ccc(C)c(-c2ccc(C(=O)NCC3CC3)cc2)c1	> 25	> 25	> 25	> 25	> 25	> 25	> 25	> 25	> 24.1	> 25	> 25	> 25	> 25	> 25	> 25	> 25	> 25	> 25	> 25	> 25
C/C(=C\c1cc(C(F)(F)F)n(-c2ccc(N)cc2)n1)[C@@H]1C[C@@H]2O[C@]2(C)CCC[C@H](C)[C@H](O)[C@@H](C)C(=O)C(C)(C)[C@@H](O)CC(=O)O1	0.00775	> 5.49	0.396	> 11.1	0.0829	> 11.1	0.0614	> 11.1	2.19	> 11.1	0.164	> 8.45	0.0162	0.582	0.0372	0.265	0.221	> 11.1	> 11.1	0.23
O=C(CCn1[nH]c(=O)c(Cl)c(Cl)c1=O)NNC(=O)C[n+]1ccccc1	–	–	–	> 100	–	> 100	–	> 100	–	> 100	–	–	–	> 100	–	–	–	> 100	> 100	–
CC(C)(C)c1ccc(OCCOCCOc2ccc(C(C)(C)C)cc2S(=O)(=O)Nc2ccc([N+](=O)[O-])cc2)c(S(=O)(=O)Nc2ccc([N+](=O)[O-])cc2)c1	–	> 100	–	> 100	–	> 100	–	> 100	–	> 100	–	–	–	> 100	–	–	–	> 100	> 100	–
O=C(CC(=O)c1cccc2ccccc12)C(=O)NC1C2CC3CC(C2)CC1C3 (configuration not stated)	–	> 100	–	> 100	–	> 100	–	> 100	–	> 100	–	–	–	> 100	–	–	–	> 100	> 100	–
CCc1cc(CCC(=O)Nc2ccccc2[N+](=O)[O-])[nH]c(=S)n1	–	> 100	–	–	–	> 100	–	> 100	–	–	–	–	–	> 100	–	–	–	–	> 100	–
COc1ccc2c3c(c(C(=O)c4ccccc4)oc13)CCC2	–	> 100	–	> 100	–	41.4	–	> 100	–	> 100	–	–	–	> 100	–	–	–	> 100	> 100	–
Cc1cccc(C(C)(C)C)c1NC(=O)CCc1nc(=S)[nH][nH]1	–	> 100	–	> 100	–	> 100	–	> 100	–	> 100	–	–	–	> 100	–	–	–	> 100	–	–
CC(=O)O[C@H](C[C@H](C(C)C)N(C)C(=O)[C@@H](NC(=O)[C@H]1CCCN1C)C(C)C)c1nc(C(=O)N[C@@H](Cc2ccccc2)C[C@H](C)C(=O)O)c(C)s1	< 0.00167	> 16.7	< 0.00167	> 16.7	0.00531	> 16.7	0.00441	> 16.7	0.0773	> 16.7	0.102	> 16.7	0.00197	0.0255	0.00224	> 16.7	–	–	> 16.7	0.0044
Nc1ccc(-c2cccs2)cc1NC(=O)c1ccc(CCCC(=O)Nc2ccc(C3CC3N)cc2)cc1 (configuration not stated)	–	–	–	–	–	–	1.61	3.37	1.52	3.3	> 100	> 100	2.44	> 100	–	–	> 100	> 100	> 100	3.5
N#Cc1cc(S(=O)(=O)Nc2nnc(-c3ccccc3)c(-c3ccccc3)n2)c(SCc2ccccc2)cc1Cl	18.5	36.2	20.3	47	> 100	> 100	24.6	64.1	33.9	87	–	–	40.8	> 100	20.1	41.6	21.3	42.1	48.7	22.8
NS(=O)(=O)c1ccc(N(/C=C/C(=O)C(F)(F)F)Cc2ccc(Cl)cc2)cc1	14.7	28.1	21.1	56.2	21.8	64.3	13.2	27	–	–	15.3	54.9	37.3	> 100	22.1	66	24.4	72.7	49.6	22.5
Cn1c(N)nc(=O)c2c1N(C1OC(CO)C(O)C1O)CN2Cc1ccccc1 (configuration not stated)	–	> 100	–	> 100	–	> 100	–	> 100	–	> 100	–	–	–	> 100	–	–	–	> 100	> 100	–
CC(=O)O[C@@]1(C)[C@@H](C)C(=O)O[C@@H]2CCN3CC=C(COC(=O)[C@]1(C)O)[C@H]23	–	> 100	–	–	–	> 100	–	> 100	–	> 100	–	–	–	> 100	–	–	–	> 100	–	–
CC(=O)[CH-]C(=O)c1ccccc1.CC(=O)[CH-]C(=O)c1ccccc1.Cc1cc([O-])ccc1Cl.Cc1cc([O-])ccc1Cl.[Ti+4]	35	> 100	32.3	> 100	35.6	> 100	27.7	> 100	40.8	> 100	–	–	19.6	38.1	–	–	19.5	60.1	47.3	18
